What was measured:
[1] = tested on: analgesia and pupil constriction produced by intravenous morphine sulfate; assay: Phase II clinical study, third molar extraction dental surgery, intravenous morphine sulfate; format: in vivo, humans; conditions: 4 mg total oral dose
[2] = solubility in water; format: physicochemical; conditions: except at low or high pH conditions
Excerpt: Zwitterionic character may be inherent to the compound, and may impart desirable properties such as poor systemic absorption and sustained local affect on the gut following oral administration.

[3] = tested on: postsurgical opioid effects, postoperative nausea and vomiting; assay: Phase II clinical study, partial colectomy or hysterectomy, postoperative nausea and vomiting (VAS); format: in vivo, humans; conditions: for patients reporting VAS nausea scores over 20 / patients exhibiting no nausea (highest VAS score=0): postoperative morphine or meperidine
Experimental: A 78 patient Phase II clinical study was conducted which compared two doses (2 mg and 12 mg) of the compound of formula (II) versus placebo in patients undergoing partial colectomy or simple or radical hysterectomy surgical procedures. All patients in this clinical study received morphine or meperidine infusions to treat postoperative pain. Oral doses of compound (II) or placebo were administered to block postsurgical opioid effects, including postoperative nausea and vomiting. Results of this study comparing patients receiving 12 mg of compound (II) and placebo are depicted graphically in FIGS. 2A and 2B.
The intensity of nausea was evaluated by patients on a 100-point visual analog scale (VAS) with VAS=0 being no nausea and VAS=100 being the worst nausea that a patient could imagine. The highest VAS nausea score (worst nausea) recorded for each patient was computed and the distributions of these maximum values were compared among the treatment groups. […] The overall treatment differences in the distributions were significant when compared using a Kruskal-Wallis test (P=0.0184). The improved outcomes observed in the 12 mg per day dose group are evident in the pairwise comparisons based on the Wilcoxon rank sum tests.

[4] = tested on: effect of intravenous morphine sulfate on upper gastrointestinal motility; assay: Phase I study in healthy volunteers with intravenous morphine sulfate; format: in vivo, humans; conditions: 4 mg oral dose
[5] = tested on: inhibition of gastrointestinal transit produced by MS Contin; assay: Phase I study in volunteers with oral sustained-release morphine (MS Contin); format: in vivo, humans; conditions: 3 mg oral three times daily for 4 days, MS Contin 30 mg twice daily
Excerpt: Pupil size was used as a surrogate measure of the morphine's analgesic activity.

[6] = tested on: loperamide-induced slowing of gut motility; assay: clinical crossover study of loperamide-induced slowing of gut motility (colonic transit time); format: in vivo; conditions: man, 8 mg b.i.d. oral loperamide
Experimental: A clinical study in man was an 8 subject multiple crossover study of the effects of oral pre-treatment with placebo, 2.4 mg or 24 mg t.i.d. of the compound of formula (II) on slowing of gut motility induced with 8 mg of b.i.d. of oral loperamide (a peripheral mu opioid agonist). […] The graph presents the effects of 2.4 or 24 mg of the compound of formula (II) on colonic transit time (in hours) following administration of loperamide. The loperamide dose was constant in the three treatment groups.

[7] = tested on: morphine-induced constipation in mice; assay: mouse model of opioid-induced constipation (charcoal meal transit time); format: in vivo
Excerpt: This establishes that the compound of formula (II) is a gut-selective and peripherally-selective mu antagonist compound. In addition, it is orally effective in preventing or reversing morphine-induced constipation in mice.

[8] = tested on: opioid-induced nausea and pruritus; conditions: Yuan, C.-S. et al. Drug and Alcohol Dependence 1998, 52, 161; cited from earlier work

Row | solubility in water [2] | SMILES | patients withdrawn for adverse effects [1] | antagonism of analgesia produced by intravenous morphine sulfate ([1]; patients) | antagonism of pupil constriction produced by intravenous morphine sulfate ([1]; patients) | reduction in postoperative pain control ([3]; 2 mg and 12 mg oral doses) | serious adverse side effects judged related to the compound ([3]; 2 mg and 12 mg oral doses) | patients reporting VAS nausea scores over 20 ([3]; 2 mg dose group) [%] | patients exhibiting no nausea (highest VAS score=0) ([3]; 2 mg per day oral) | patients exhibiting no nausea (highest VAS score=0) ([3]; 12 mg per day oral) [%] | patients reporting VAS nausea scores over 20 ([3]; 12 mg per day oral) [%] | distribution of highest VAS nausea score compared to placebo ([3]; 12 mg per day, Wilcoxon rank sum test, P=0.0072) | effect of intravenous morphine sulfate on upper gastrointestinal motility ([4]; P<0.01) | morphine-induced nausea ([4]; P=0.07) | MS Contin effects on pupil size (surrogate of analgesic activity) [5] | inhibition of gastrointestinal transit produced by oral sustained-release morphine [5] | loperamide-induced slowing of gut motility (colonic transit time) ([6]; 2.4 mg t.i.d. oral pre-treatment) | loperamide-induced slowing of gut motility (colonic transit time) ([6]; 24 mg t.i.d. oral pre-treatment) | reversal of morphine-induced constipation ([7]; chronic morphine treated mice) | prevention of acute morphine-induced constipation (charcoal meal transit time) ([7]; mice, orally administered) | incidence of opioid-induced nausea and pruritus [8]
1 | low solubility in water | C[C@H]1CN(C[C@H](Cc2ccccc2)C(=O)NCC(=O)O)CCC1(C)c1cccc(O)c1 (some centres unmarked) [compound of formula (II)] | No patients were withdrawn for adverse effects | did not antagonize | did not antagonize | None of the patients | No patients experienced serious adverse side effects | 67 | approximately 25% | ~40 | 27 | statistically significantly improved | blocked the effect of intravenous morphine sulfate on upper gastrointestinal motility | trend toward antagonizing morphine-induced nausea | without antagonizing MS Contin® effects on pupil size | blocked the inhibition of gastrointestinal transit | prevented loperamide-induced slowing of gut motility | prevented loperamide-induced slowing of gut motility | even more potent in reversing morphine-induced constipation | prevented acute morphine-induced constipation | 
2 |  | C[N@+]1(CC2CC2)CC[C@]23c4c5ccc(O)c4O[C@H]2C(=O)CC[C@@]3(O)[C@H]1C5 [methylnaltrexone] |  |  |  |  |  |  |  |  |  |  |  |  |  |  |  |  |  |  | effectively reduce the incidence of opioid-induced nausea and pruritus

Source: patent US6451806B2, “Methods and compositions involving opioids and antagonists thereof” (Adolor Corporation, priority 1999, dated 2002)
